Experimental data: the supplement of paper PMC5412046
Counter-ions that a name gives are not always drawn.

Tests used:
SB.mhdgc-1 = test: AC50 for growth inhibition (viability) (log10 M); higher = less potent; settings: SB.mhdgc-1 (hereditary c.1380delA CDH1 gastric cancer)
Summary of the method: (§1)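 In 1536-well plates, each well held 500 patient-derived gastric cancer cells (hereditary or sporadic) in 5 μL medium. Compound in DMSO, 23 nL per well, was pinned in 11 threefold dilutions starting at a final 46 μM. Following 48 h of exposure, cells had CellTiter-Glo for 30 min at room temperature before ViewLux luminescence reading. Only high-quality curve classes from four-parameter fits of DMSO-normalised viability gave the log half-maximal activity concentration.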

SB.msgc-1 = test: as above; settings: SB.msgc-1 (sporadic gastric cancer)
Summary of the method: as §1

Row | Compound | AC50 for growth inhibition (log10 M) (SB.mhdgc-1) | AC50 for growth inhibition (log10 M) (SB.msgc-1)
1 | CNC(=O)c1cc(Oc2ccc(NC(=O)Nc3ccc(Cl)c(C(F)(F)F)c3)c(F)c2)ccn1 [Regorafenib] | -4.78 | -4.83
2 | COc1cc2ncnc(Nc3cccc(Cl)c3)c2cc1OC [AG-1478] | -7.43 | -6.23
3 | NC1=C(Cl)C(=CC=N1)OC2=C(F)C=C(NC(=O)\C3=C\N\C=C(C3=O)\C4=CC=C(F)C=C4)C=C2 | -6.43 | -4.73
4 | c1nc2c(NC3CCCCC3)nc(Nc3ccc(N4CCOCC4)cc3)nc2[nH]1 [Reversine] | -4.63 | -4.73
5 | CNC(=O)c1nn(C)c2c1C(C)(C)Cc1cnc(Nc3ccc(N4CCN(C)CC4)cc3)nc1-2 [Milciclib] | -5.93 | -5.88
6 | Cn1c2ccccc2c2c3c(c4c5ccccc5n(CCC#N)c4c21)CNC3=O [G?-6976] | -5.08 | -5.23
7 | C[C@]1(CO)CN(c2cc(C(=O)Nc3ccc4c(c3)-c3c(c(C(N)=O)nn3-c3ccc(F)cc3)CC4)c(Cl)cn2)C[C@@]1(C)CO [PF-184] | -5.43 | -5.08
8 | COc1cc(C[C@@H](CO)[C@H](CO)Cc2ccc(O)c(OC)c2)ccc1O [Secoisolariciresinol] | -6.38 | -6.63
9 | COc1cccc2c(NCc3ccccc3)nc(-n3c(N)nc4ccccc43)nc12 | -5.13 | -5.08
10 | CC(=O)O[C@@]1(CC[C@H]2[C@@H]3\C=C(Cl)/C4=C/C(=O)[C@@H]5C[C@@H]5[C@]4(C)[C@H]3CC[C@]12C)C(C)=O [Cyproterone acetate] | -5.08 | -4.68
11 | CC1=C(/C=C/C(C)=C/C=C/C(C)=C/C(=O)Nc2ccc(O)cc2)C(C)(C)CCC1 [Fenretinide] | -4.67 | -4.52
12 | COCCOc1nc(-c2ccc(Cl)c(Cl)c2)n(-c2ccc(NC(=O)CCl)cc2)n1 [MI-2] | -4.73 | -5.08
13 | NC1(C(=O)N[C@@H](CCO)c2ccc(Cl)cc2)CCN(c2ncnc3[nH]ccc23)CC1 [AZD-5363] | -5.23 | -5.08
14 | CC(C)=CC[C@@H](O)C/1=C/C(=O)C2=C(O)C=CC(=C2C1=O)O [Shikonin] | -6.13 | -5.83
15 | CN1CC/C(CC1)=C3\c4ccccc4CC(=O)c2sccc23 [Ketotifen] | -5.53 | -4.78
16 | COc1ccc2cc3[n+](cc2c1OC)CCc1cc2c(cc1-3)OCO2 [Berberine] | -4.98 | -5.18
17 | COC(=O)C\1=C(C)\N\C(=C(/C1C2=CC=CC3=NON=C23)C(=O)OC(C)C)C (stereo not given) [Isradipine] | -5.38 | -4.78
18 | CC1=CC=CC=C1N2\C(=N/C3=C(C(=CC=C3)C)C2=O)C[N]4C=NC5=C4N=CN=C5N | -5.43 | -6.23
19 | CCCCN(CCCC)CCC(O)c1cc2c(Cl)cc(Cl)cc2c2cc(C(F)(F)F)ccc12 (stereo not given) [Halofantrine] | -4.68 | -4.73
20 | CC(C)c1cnn2c(NCc3ccccc3)cc(NCCCCCCN)nc12 [BS-181] | -4.83 | -4.73

Row | Compound | AC50 for growth inhibition (log10 M) (SB.mhdgc-1) | AC50 for growth inhibition (log10 M) (SB.msgc-1)
21 | CC(=O)N(C)C1(c2ccccc2)CCN(CCC[C@]2(c3ccc(Cl)c(Cl)c3)CCCN(C(=O)c3ccccc3)C2)CC1 [Osanetant] | -4.98 | -4.78
22 | COC1=CC=C2/C3=N/CCN3\C(=N/C2=C1OC)NC(=O)C4=CC=CN=C4 [PIK-90] | -5.33 | -4.98
23 | COC1=CC=C(C=C1)C2CC(=N/N2C3=CC=C(C=C3)[S+](N)([O-])=O)\C4=CC=CC=C4 (stereo not given) [ML 141] | -4.68 | -4.73
24 | C[N+](C)([O-])CCNc1ccc(NCC[N+](C)(C)[O-])c2c1C(=O)c1c(O)ccc(O)c1C2=O [Banoxantrone] | -4.78 | -4.88
25 | COC[C@H](NC(=O)c1cnc(C)s1)C(=O)N[C@@H](COC)C(=O)N[C@@H](Cc1ccccc1)C(=O)[C@@]1(C)CO1 [Oprozomib] | -6.93 | -6.93
26 | O=C(c1ccc(F)c(F)c1Nc1ccc(I)cc1F)N1CC(O)([C@H]2CCCCN2)C1 [Cobimetinib] | -4.78 | -5.28
27 | CC[C@@]1(O)C(=O)OC\C2=C1\C=C\3N(CC4=C3N=C5C=CC=CC5=C4)C2=O [Camptothecin] | -7.93 | -7.43
28 | CCC[C@@H](C=O)NC(=O)[C@H](CC(C)C)NC(=O)[C@H](CC(C)C)NC(=O)OCc1ccccc1 [MG-115] | -5.98 | -5.88
29 | CN(C)c1ccc(O)c2c1C[C@H]1C[C@H]3[C@H](N(C)C)C(O)=C(C(N)=O)C(=O)[C@@]3(O)C(O)=C1C2=O [Minocycline] | -5.43 | -5.38
30 | CCCCOc1ccc(CC(=O)NO)cc1 [Bufexamac] | -5.43 | -4.88
31 | CCNC(=O)Nc1ccc2ncc(Nc3ccc(C)cc3)nc2n1 | -7.43 | -6.43
32 | C\C1=C\N([C@H]2C[C@H](N=[N+]=[N-])[C@@H](CO)O2)C(=O)NC1=O [Zidovudine] | -5.03 | -4.58
33 | C=C(C)[C@H]1Cc2c(ccc3c2O[C@@H]2COc4cc(OC)c(OC)cc4[C@@H]2C3=O)O1 [Rotenone] | -5.38 | -6.33
34 | N#Cc1ccc(COC[C@H]2O[C@@H](n3c(NCc4ccc(Cl)c(Cl)c4)nc4c(N)ncnc43)[C@H](O)[C@@H]2O)cc1 | -4.93 | -5.08
35 | CNC(=O)c1ccc(N2C(=S)N(c3cnc(C#N)c(C(F)(F)F)c3)C(=O)C23CCC3)cc1F [ARN-509] | -6.53 | -6.08
36 | Cc1ccc(C)c(OCCCC(C)(C)C(=O)O)c1 [Gemfibrozil] | -4.78 | -5.13
37 | Nc1ncnc2c1nc(Cl)n2[C@@H]1O[C@H](CO)[C@@H](O)[C@H]1O [8-Cl-Ado] | -4.78 | -4.68
38 | Cc1n[nH]c2ccc(-c3cncc(OC[C@@H](N)Cc4ccccc4)c3)cc12 | -6.43 | -5.43
39 | COC1=CC(c2cc3ccccc3[nH]2)=N/C1=C/c1[nH]c(C)cc1C [Obatoclax] | -5.43 | -5.33
40 | CCN(CC)CCOc1ccc(Cc2ccccc2)cc1 [Tesmilifene hydrochloride] | -4.48 | -5.18
